Data published in patent US11584744B2 (UNIVERSITY OF WASHINGTON, priority 2017, dated 2023).

How the values were obtained:
S. aureus (ATCC 29213) [1] = test: Macromolecular synthesis assays (radiolabeled precursor incorporation); format: cell-based, Staphylococcus aureus; conditions: 30 minute incubations
Experimental: Macromolecular synthesis assays: Methods for measuring uptake of radiolabeled precursors by S. aureus (ATCC strain 29213) were adapted from previous publications. For these assays, bacteria were grown in defined media (DM): RPMI-1640 pH 7.3±0.1 without phenol red or L-glutamine (Lonza, Basel, Switzerland) supplemented with 4 mM L-glutamine (Lonza, Basel, Switzerland), 10 mM HEPES (Lonza, Basel, Switzerland), and 1% (w/v) D-glucose (Sigma Aldrich, St. Louis, Mo.). Fresh overnight cultures grown in DM at 37° C. were diluted 1:50 in pre-warmed DM and grown at 37° C. with shaking (150 rpm) until reaching an OD600 of 0.420 correlating to ˜1*10^9 CFUs/mL in mid-log phase. Each compound was assayed in quadruplicate with an 11-point three-fold serial dilution per radioisotope. A pre-warmed 96-well V-bottom plate (Corning 3894; Corning, Corning, Mass.) containing 25 μL of 4× final concentration of test compound was inoculated with 65 μL of mid-log phase bacteria (OD600 of 0.420). Both positive and negative control wells received 25 μL untreated DM and 65 μL of inoculum at the same time. After one minute, 10 μL of radiolabeled precursor (10× final concentration in DM) was added to samples and positive control wells. Final isotope concentrations for assay of [3H]-lysine (protein), [3H]-thymidine (DNA), and [3H]-uridine (RNA) were 10 μCi/mL, 2 μCi/mL, and 2 μCi/mL respectively. […] After termination, 10 μL of 10× radiolabeled precursor was added to negative control wells. The negative control consisted of adding radiolabeled precursors after termination of the bacterial incubation in order to represent background measurement of the isotope. Plates were sealed with plate tape (Thermo Fischer Scientific, Waltham, Mass.) and shaken at 250 rpm for one hour at room temperature. Aliquots of 125 μL were transferred from the 96-well V-bottom plates to 96-well filter plates (Merck Millipore, Billerica, Mass.). To bind macromolecules, the samples were passed through the filter membrane (0.45 μM hydrophilic Durapore PVDF membrane) with a vacuum manifold, then the filter was washed with 4×200 μL 10% TCA and 1×150 μL of 95% ethanol, and dried overnight in vacuum at room temperature. 25 μL Ultima Gold scintillation fluid (Perkin Elmer, Waltham, Mass.) was added to each well and DPM was quantified using a MicroBeta^2-2450 (Perkin Elmer, Waltham, Mass.) scintillation counter. The percent incorporation was determined by subtracting each well by the average negative background and dividing by the average positive incorporation×100. Error bars represent SEM between replicates. The assay was run twice with similar results.

[2] = test system: E. coli MB4827 (wild-type); test: MIC against permeability strains of E. coli; format: cell-based; conditions: Escherichia coli, read-out: MIC MB4827 (wild-type)
Experimental: Bacterial strains. Strains with ATCC designations were either obtained directly from the American Type Culture Collection (Manassas, Va.) or were kindly provided by the University of Washington Clinical Microbiology laboratory. Escherichia coli permeability mutants (properties shown in Table 1) were provided as a gift from Dr. Katherine Young at Merck (Rahway, N.J.).
Susceptibility testing: Minimum inhibitory concentration (MIC) determinations were performed in triplicate in 96-well round bottom microtiter plates (Corning, Corning N.Y.) as described by the Clinical and Laboratory Standards Institute (CLSI). Serial two-fold dilutions of compounds were added to plates in 50 μL volumes. An additional 50 μL of media containing bacterial cells (1×10^6 CFUs/mL) was then added to each well. Maximum DMSO concentrations were 0.5%. Plates were incubated at 37° C. for at least 18 h before reading the susceptibility result by optical absorbance (OD600) using a BioTek ELx800. The lowest concentration causing ≥90% growth inhibition compared to the untreated control was recorded as the MIC (and also corresponded to the visual MIC). MICs were measured at least twice and the higher value (if different) was recorded herein.

S. aureus (ATCC 29213) [3] = format: cell-based, Staphylococcus aureus; conditions: 8× the MIC; for Resistance frequency (Expt. 1) / Resistance frequency (Expt. 2): 72 h; for Resistance frequency (average or greater #): two independent experiments
Experimental: Resistance frequency rates determination: The spontaneous resistance frequency rates to test compounds was determined according to published methods. Agar selection plates were made by adding compound from DMSO stocks into molten Mueller Hinton agar in a 55° C. water bath. […] The final DMSO concentration was <0.1% per plate. Plates were dried in a sterile hood for 30 minutes prior to overnight storage at 4° C., and pre-warmed in the 37° C. incubator for 1 hour prior to assay.
A fresh overnight culture was diluted 1:50 in MHB and grown at 37° C. with shaking (150 rpm) until reaching an OD600 of 0.4 correlating to ˜2×10^9 CFUs/mL. Approximately 3 mL for a total of 6*10^9 CFUs were distributed onto 4 plates for each compound. Plates were incubated at 37° C. for 72 h prior to counting of colonies. The starting inoculum was also serially diluted and plated to quantify initial bacterial load. The resistance frequency was determined as the number of compound-resistant colonies divided by the total colonies plated.
Resistance frequency rates: The propensity for S. aureus to develop resistance to MetRS inhibitors was also studied (Table 6).

| SMILES | Incorporation of 3H-Lysine (protein synthesis) (S. aureus (ATCC 29213) [1]) | MIC [2] [µg/mL] | Resistance frequency (Expt. 1) (S. aureus (ATCC 29213) [3]) | Resistance frequency (Expt. 2) (S. aureus (ATCC 29213) [3]) | Resistance frequency (average or greater #) (S. aureus (ATCC 29213) [3]) |
| --- | --- | --- | --- | --- | --- |
| COc1cc(Cl)c(-c2cccc3nc(Cc4nc5nc(Cl)ccc5[nH]4)cn23)cc1OC [Compound 2144, 2-({5-chloro-1H-imidazo[4,5-b]pyridin-2-yl}methyl)-5-(2-chloro-4,5-dimethoxyphenyl)imidazo[1,2-a]pyridine] | profoundly inhibited | > 20 | 3.15 × 10^−9 | 2.45 × 10^−8 | 1.38 × 10^−8 |
| CCn1c(Cc2ccc(OC)cc2Cl)cn(Cc2nc3nc(Cl)ccc3[nH]2)c1=O [Compound 2093, 1-({5-chloro-1H-imidazo[4,5-b]pyridin-2-yl}methyl)-4-[(2-chloro-4-methoxyphenyl)methyl]-3-ethyl-2,3-dihydro-1H-imidazol-2-one] | profoundly inhibited | > 20 | 1.60 × 10^−8 | 2.58 × 10^−8 | 2.10 × 10^−8 |
| Fc1ccc2nc(NCCCN[C@@H]3CCNc4c(Cl)cc(Cl)cc43)[nH]c2n1 [Compound 1717, (4R)-6,8-dichloro—N-[3-({5-fluoro-3H-imidazo[4,5-b]pyridin-2-yl}amino)propyl]-1,2,3,4-tetrahydroquinolin-4-amine, reference compound] | profoundly inhibited | > 20 | 2.89 × 10^−9 | 5.43 × 10^−9 |  |
